From patent US10022453B2 (BAYER PHARMA AKTIENGESELLSCHAFT, priority 2013, dated 2018) come the findings set out here.

pIC50: −log10 of the molar value.

As a reminder, the IC50 is the concentration that inhibits the measured activity by half. The pIC50 is the negative decadic logarithm of the IC50, by convention in mol/L. Lower therefore signals a large IC50.

In experiment [1] the test system is NCI-H292. As to the kind of experiment: Cytotoxic effects, MTT assay. The class given is cell-based. As to conditions: Homo sapiens, 72 h incubation. Here is the method:
The cells are cultivated by a standard method, as indicated in the […] (ATCC) for the respective cell lines.
At the end of the selected incubation time, the MTT reagent is incubated with the cells for 4 h, followed by lysis of the cells overnight by addition of the detergent. […] The proliferation of cells which were not treated with test substance but were otherwise identically treated was defined as the 100% figure.
(Tetrazolium dyes change colour on reduction, which living cells bring about.)

Experiment [2] concerns the target T1, human kinesin spindle protein KSP/Eg5 (Homo sapiens, UniProt P52732).
T1 construct: The motor domain of the human kinesin spindle protein KSP/Eg5; purchased tebu-bio/Cytoskeleton Inc 027EG01-XL
T1 sequence (P52732 18-359 limits assumed): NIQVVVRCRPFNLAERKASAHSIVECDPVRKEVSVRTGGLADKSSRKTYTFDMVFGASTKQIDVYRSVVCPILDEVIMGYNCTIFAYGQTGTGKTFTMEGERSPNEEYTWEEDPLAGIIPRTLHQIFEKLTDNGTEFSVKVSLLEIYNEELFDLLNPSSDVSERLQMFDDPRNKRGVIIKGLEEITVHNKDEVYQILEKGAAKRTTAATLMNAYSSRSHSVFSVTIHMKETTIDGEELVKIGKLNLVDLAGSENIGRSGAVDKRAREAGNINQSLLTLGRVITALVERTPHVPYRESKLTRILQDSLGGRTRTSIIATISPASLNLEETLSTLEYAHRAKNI
As to the kind of experiment: Inhibition of the kinesin spindle protein KSP/Eg5 (ATPase, malachite green). The class given is biochemical. As to conditions: 10 nM KSP motor domain, 500 μM ATP, 2 h RT. In a few lines: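 KSP/Eg5 motor domain (10 nM) preincubated 5 min at RT with 50 μg/ml taxol-stabilized bovine or porcine microtubules in 15 mM PIPES pH 6.8, 5 mM MgCl2, 10 mM DTT. IC50 = mean of three experiments.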

Take `CC(C)(C)[C@H](c1cc(-c2cc(F)ccc2F)cn1Cc1ccccc1)N(CCCN)C(=O)CC(F)(F)F` [Example 186, N-(3-Aminopropyl)-N-{(1R)-1-[1-benzyl-4-(2,5-difluorophenyl)-1H-pyrrol-2-yl]-2,2-dimethylpropyl}-3,3,3-trifluoropropanamide]: the IC50 in experiment [1] was 9.29 nM. In experiment [2], this compound gave a pIC50 of 7.60.
Taken in the same sequence, the figures for `CC(C)(C)[C@H](c1cc(-c2cc(F)ccc2F)cn1Cc1ccccc1)N(CCCN)C(=O)c1ccc(F)cc1` [Example 187, N-(3-aminopropyl)-N-{(1R)-1-[1-benzyl-4-(2,5-difluorophenyl)-1H-pyrrol-2-yl]-2,2-dimethylpropyl}-4-fluorobenzamide] were 1.98 nM and 7.85.
Taken in the same sequence, the figures for `CC(=O)N(CCCN)[C@@H](c1cc(-c2cc(F)ccc2F)cn1Cc1ccccc1)C(C)(C)C` [Example 188, N-(3-aminopropyl)-N-{(1R)1-[1-benzyl-4-(2,5-difluorophenyl)-1H-pyrrol-2-yl]-2,2-dimethylpropyl}acetamide] were 0.928 nM and 8.00.
On the same counts, the results for `CC(C)(C)[C@H](c1cc(-c2cc(F)ccc2F)cn1Cc1ccccc1)N(CCCN)C(=O)c1ccc(C(F)(F)F)cc1` [Example 189, N-(3-aminopropyl)-N-{(1R)-1-[1-benzyl-4-(2,5-difluorophenyl)-1H-pyrrol-2-yl]-2,2-dimethylpropyl}-4-(trifluoromethyl)benzamide] are 8.76 nM and 7.95.
In experiment [1], `CC(C)(C)[C@H](c1cc(-c2cc(F)ccc2F)cn1Cc1ccccc1)N(CCCN)C(=O)c1ccc(F)cc1F` [Example 190] came in with a half-maximal inhibitory concentration (IC50) of 5.42 nM. In addition, in experiment [2], the pIC50 was 8.02.
On the same counts, the results for `CC(C)(C)[C@H](c1cc(-c2cc(F)ccc2F)cn1Cc1ccccc1)N(CC[C@H](N)C(=O)NCCC(=O)O)C(=O)CO` [Example 200, N-{(2S)-2-Amino-4-[{(1R)-1-[1-benzyl-4-(2,5-difluorophenyl)-1H-pyrrol-2-yl]-2,2-dimethylpropyl}(glycoloyl)amino]butanoyl}-beta-alanine/trifluoroacetic acid (1:1)] are 140 nM and 9.97.
Taken in the same sequence, the figures for `C[C@H](NC(=O)[C@@H](N)CCN(C(=O)CO)[C@@H](c1cc(-c2cc(F)ccc2F)cn1Cc1ccccc1)C(C)(C)C)C(=O)O` [Example 202, N-{(2S)-2-Amino-4-{[(1R)-1-[1-benzyl-4-(2,5-difluorophenyl)-1H-pyrrol-2-yl]-2,2-dimethylpropyl}(glycoloyl)amino]butanoyl}-L-alanine/trifluoroacetic acid (1:1)] were 422 nM and 9.59.
With `Cc1ccc(C(=O)N(CCCN)[C@@H](c2cc(-c3cc(F)ccc3F)cn2Cc2ccccc2)C(C)(C)C)cc1` [Example 219, Trifluoroacetic acid/N-(3-aminopropyl)-N-{(1R)-1-[1-benzyl-4-(2,5-difluorophenyl)-1H-pyrrol-2-yl]-2,2-dimethylpropyl}-4-methylbenzamide (1:1)], in experiment [1], the midpoint of inhibition, the IC50, lay at 3.48 nM. Also, the pIC50 in experiment [2] is 8.95.
As to `CSc1ccc(C(=O)N(CCCN)[C@@H](c2cc(-c3cc(F)ccc3F)cn2Cc2ccccc2)C(C)(C)C)cc1` [Example 220, Trifluoroacetic acid/N-(3-aminopropyl)-N-{(1R)-1-[1-benzyl-4-(2,5-difluorophenyl)-1H-pyrrol-2-yl]-2,2-dimethylpropyl}-4-(methylsulphanyl)benzamide (1:1)], the concentration for half-maximal inhibition (IC50) in experiment [1] was 0.197 nM. Further, in experiment [2], the pIC50 was 8.84.
On the same counts, the results for `C[C@H](O)C(=O)N(CCCN)[C@@H](c1cc(-c2cc(F)ccc2F)cn1Cc1ccccc1)C(C)(C)C` [Example 221, Trifluoroacetic acid/(2S)—N-(3-aminopropyl)-N-{(1R)-1-[1-benzyl-4-(2,5-difluorophenyl)-1H-pyrrol-2-yl]-2,2-dimethylpropyl}-2-hydroxypropanamide (1:1)] are 0.1 nM and 9.95.
On the same counts, the results for `CSCC(=O)N(CCCN)[C@@H](c1cc(-c2cc(F)ccc2F)cn1Cc1ccccc1)C(C)(C)C` [Example 222, Trifluoroacetic acid/N-(3-aminopropyl)-N-{(1R)-1-[1-benzyl-4-(2,5-difluorophenyl)-1H-pyrrol-2-yl]-2,2-dimethylpropyl}-2-(methylsulphanyl)acetamide (1:1)] are 3.3 nM and 8.80.
The compound `C[C@H](O)C(=O)N(CCCN)[C@@H](c1nn(-c2cc(F)ccc2F)cc1Cc1ccccc1)C(C)(C)C` [Example 223, Trifluoroacetic acid/(2S)—N-(3-aminopropyl)-N-{(1R)-1-[4-benzyl-1-(2,5-difluorophenyl)-1H-pyrazol-3-yl]-2,2-dimethylpropyl}-2-hydroxypropanamide (1:1)] showed an IC50 in experiment [1] of 0.0077 nM. The compound also had a pIC50 in experiment [2] of 9.54.
On to `COC(=O)CCC(=O)N(CCCN)[C@@H](c1cc(-c2cc(F)ccc2F)cn1Cc1ccccc1)C(C)(C)C` [Example 224, Trifluoroacetic acid/methyl 4-[(3-aminopropyl){(1R)-1-[1-benzyl-4-(2,5-difluorophenyl)-1H-pyrrol-2-yl]-2,2-dimethylpropyl}amino]-4-oxobutanoate (1:1)], for which the IC50 in experiment [1] was found to be 0.00337 nM. The compound further gave a pIC50 in experiment [2] of 9.71.
In experiment [1], `CC(C)(C)[C@H](c1cc(-c2cc(F)ccc2F)cn1Cc1ccccc1)N(CCCN)C(=O)CCC(=O)O` [Example 225, 4-[(3-Aminopropyl) {(1R)-1-[1-benzyl-4-(2,5-difluorophenyl)-1H-pyrrol-2-yl]-2,2-dimethylpropyl}amino]-4-oxobutanoic acid/trifluoroacetic acid (1:1)] returned a concentration for half-maximal inhibition (IC50) of 1.51 nM. For the same compound, the pIC50 in experiment [2] was 9.37.
`CC(C)(C)[C@H](c1nn(-c2cc(F)ccc2F)cc1Cc1ccccc1)N(CCCN)C(=O)c1ccc(N)cc1` [Example 227, Trifluoroacetic acid/4-amino-N-(3-aminopropyl)-N-{(1R)-1-[4-benzyl-1-(2,5-difluorophenyl)-1H-pyrazol-3-yl]-2,2-dimethylpropyl}benzamide (2:1)]: inhibition in experiment [1] was half-maximal at 1.82 nM (IC50). For the same compound, the negative-log IC50 (pIC50) in experiment [2] is 8.75.
Taken in the same sequence, the figures for `CC(=O)N[C@@H](CSCC(=O)N(CCCN)[C@@H](c1cc(-c2cc(F)ccc2F)cn1Cc1ccccc1)C(C)(C)C)C(=O)O` [Example 228, N-Acetyl-S-{2-[(3-aminopropyl){(1R)-1-[1-benzyl-4-(2,5-difluorophenyl)-1H-pyrrol-2-yl]-2,2-dimethylpropyl}amino]-2-oxoethyl}-L-cysteine/trifluoroacetic acid (1:1)] were 5.36 nM and 8.51.
On to `CC(=O)N[C@@H](CSCC(=O)N(CCCNC(=O)[C@H](C)N)[C@@H](c1cc(-c2cc(F)ccc2F)cn1Cc1ccccc1)C(C)(C)C)C(=O)O` [Example 229, N-acetyl-S-[2-([3-(L-alanylamino)propyl]{(1R)-1-[1-benzyl-4-(2,5-difluorophenyl)-1H-pyrrol-2-yl]-2,2-dimethylpropyl}amino)-2-oxoethyl]-L-cysteine/trifluoroacetic acid (1:1)], for which the concentration for half-maximal inhibition (IC50) in experiment [1] is no less than 500 nM. The negative-log IC50 (pIC50) in experiment [2] was 8.35.
On the same counts, the results for `CC(C)(C)[C@H](c1cc(-c2cc(F)ccc2F)cn1Cc1ccccc1)N(CCCN)C(=O)[C@@H]1CCCO1` [Example 230, Trifluoroacetic acid/(2S)—N-(3-aminopropyl)-N-{(1R)-1-[1-benzyl-4-(2,5-difluorophenyl)-1H-pyrrol-2-yl]-2,2-dimethylpropyl}tetrahydrofuran-2-carboxamide (1:1)] are 0.0121 nM and 8.47.
Taken in the same sequence, the figures for `CC(C)(C)[C@H](c1cc(-c2cc(F)ccc2F)cn1Cc1ccccc1)N(CCCN)C(=O)CSCCC(=O)O` [Example 231, 3-({2-[(3-Aminopropyl){(1R)-1-[1-benzyl-4-(2,5-difluorophenyl)-1H-pyrrol-2-yl]-2,2-dimethylpropyl}amino]-2-oxoethyl}sulphanyl)propanoic acid/trifluoroacetic acid (1:1)] were 0.918 nM and 8.78.
On the same counts, the results for `CC(C)(C)[C@H](c1cc(-c2cc(F)ccc2F)cn1Cc1ccccc1)N(CCCN)C(=O)c1ccc(N)cc1` [Example 233, Trifluoroactic acid/4-amino-N-(3-aminopropyl)-N-{(1R)-1-[1-benzyl-4-(2,5-difluorophenyl)-1H-pyrrol-2-yl]-2,2-dimethylpropyl}benzamide (2:1)] are 0.963 nM and 8.41.
In experiment [1], `CC(C)(C)[C@H](c1cc(-c2cc(F)ccc2F)cn1Cc1ccccc1)N(CC[C@H](N)C(=O)NCCCCCCN1C(=O)CC(SC[C@H](N)C(=O)O)C1=O)C(=O)CO` (stereo partly drawn) [Example 249, S-{1-[6-({(2S)-2-Amino-4-[{(1R)-1-[1-benzyl-4-(2,5-difluorophenyl)-1H-pyrrol-2-yl]-2,2-dimethylpropyl}(glycoloyl)amino]butanoyl}amino)hexyl]-2,5-dioxopyrrolidin-3-yl}-L-cysteine/trifluoroacetic acid (1:1)] showed a concentration for half-maximal inhibition (IC50) of 26.6 nM. This compound gave a pIC50 in experiment [2] of 9.04.
